For the assay, the system named is human hepatoma Huh-7 cell line harboring a HCV replicon. The assay is described as follows: HCV replicon assay (inhibition of viral replication, luciferase). Format: cell-based. Particulars: Hepatitis C virus, 72 h; 2 μM; Huh-7 HCV replicon cells, 3 days incubation; inhibition of viral replication; read-out: % inhibition at 2 μM. How it is done: The anti-HCV activity of the compounds of this invention was tested in a human hepatoma Huh-7 cell line harboring a HCV replicon. The assay comprised the following steps:
Step 1: Compound Preparation and Serial Dilution.
Serial dilution was performed in 100% DMSO in a 384-well plate. A solution containing a compound at 225-fold concentration of the starting final serial dilution concentration was prepared in 100% DMSO and 15 uL added to the pre-specified wells in column 3 or 13 of a polypropylene 384-well plate. The rest of the 384-well plate was filled with 10 uL 100% DMSO except for columns 23 and 24, where 10 uL of 500 uM a HCV protease inhibitor (ITMN-191) in 100% DMSO was added. The HCV protease inhibitor was used a control of 100% inhibition of HCV replication. The plate was then placed on a Biomek FX Workstation to start the serial dilution. The serial dilution was performed for ten cycles of 3-fold dilution from column 3 to 12 or from column 13 to 22.
Step 2: Cell Culture Plate Preparation and Compound Addition
To each well of a black polypropylene 384-well plate, 90 μL of cell media containing 1600 suspended Huh-7 HCV replicon cells was added with a Biotek uFlow Workstation. A volume of 0.4 μL of the compound solution was transferred from the serial dilution plate to the cell culture plate on a Biomek FX Workstation. The DMSO concentration in the final assay condition was 0.44%. The plates were incubated for 3 days at 37° C. with 5% CO2 and 85% humidity.
Step 3: Detection of Cytotoxicity and Inhibition of Viral Replication
a) Assessment of cytotoxicity: The media in the 384-well cell culture plate was aspirated with a Biotek EL405 plate-washer. A volume of 50 μL of a solution containing 400 nM Calcein AM in 100% PBS was added to each well of the plate with a Biotek uFlow Workstation. The plate was incubated for 30 minutes at room temperature before the fluorescence signal ([…]) was measured with a Perkin Elmer Envision Plate Reader.
b) Assessment of inhibition of viral replication: The calcein-PBS solution in the 384-well cell culture plate was aspirated with a Biotek EL405 plate-washer. A volume of 20 μL of Dual-Glo luciferase buffer (Promega, Dual-Glo Luciferase Assay Reagent, cat. #E298B) was added to each well of the plate with a Biotek uFlow Workstation. The plate was incubated for 10 minutes at room temperature. A volume of 20 μL of a solution containing 1:100 mixture of Dual-Glo Stop & Glo substrate(Promega, Dual-Glo Luciferase Assay Reagent, cat. #E313B) and Dual-Glo Stop & Glo buffer (Promega, Dual-Glo Luciferase Assay Reagent, cat. #E314B) was then added to each well of the plate with a Biotek uFlow Workstation. The plate was incubated at room temperature for 10 minutes before the luminescence signal was measured with a Perkin Elmer Envision Plate Reader.
The percent cytotoxicity was determined by calcein AM conversion to fluorescent product. The average fluorescent signal from the DMSO control wells were defined as 100% nontoxic. The individual fluorescent signal from testing compound treated well was divided by the average signal from DMSO control wells and then multiplied by 100% to get the percent viability. The percent anti-HCV replication activity was determined by the luminescence signal from the testing well compared to DMSO controls wells. The background signal was determined by the average luminescence signal from the HCV protease inhibitor treated wells and was subtracted from the signal from the testing wells as well as the DMSO control wells. Following 3-fold serial dilutions, the EC50 and CC50 values were calculated by fitting % inhibition at each concentration to the following equation: % inhibition=100%[(EC50/[l])^b+1]
Where b is Hill's coefficient. See, for reference, Hill, A. V., The Possible Effects of the Aggregation of the Molecules of Hæmoglobin on its Dissociation Curves, J. Physiol. 40: iv-vii. (1910). […]
In general terms: In antiviral work, replicon cells carry a viral genome segment that copies itself.
`CN([C@H]1CC[C@H](N(c2cc(C#CC(C)(C)C)sc2C(=O)O)C(=O)[C@H]2CC[C@H](C)CC2)CC1)S(=O)(=O)c1cccnc1` [Compound 164, 5-(3,3-dimethyl-but-1-ynyl)-3-((4-trans-methyl-cyclohexanecarbonyl)-{4-trans-[methyl-(pyridine-3-sulfonyl)-amino]-cyclohexyl}-amino)-thiophene-2-carboxylic acid]: the inhibition (as a rule, the drop in the measured response relative to a control, in per cent) at 2 µM amounted to 98.9%.

Regarding `CC(C)(C)C#Cc1cc(N(C(=O)[C@H]2CC[C@H](C)CC2)C2CCC(=NOCc3ccccc3)CC2)c(C(=O)O)s1` (stereo partly drawn) [Compound 113], the inhibition at 2 µM came to 98.1%.

For the compound `CC(C)(C)C#Cc1cc(N(C(=O)[C@H]2CC[C@H](C)CC2)C2CCC(NC(=O)OC3(C)CCNC3)CC2)c(C(=O)O)s1` (stereo partly drawn) [Compound 76, 5-(3,3-Dimethyl-but-1-ynyl)-3-{(trans-4-cyclohexanecarbonyl)-[4-(3-methyl-pyrrolidin-3-yloxycarbonylamino)-cyclohexyl]-amino}-thiophene-2-carboxylic acid], the inhibition at 2 µM was found to be 99.4%.

Take `CC1CCC(C(=O)N(c2cc(C#CC(C)(C)C)sc2C(=O)O)N(C)[C@H]2CC[C@@H](O)CC2)CC1` (stereo partly drawn) [Compound 123, 3-(2-(4-hydroxycyclohexyl)-2-methyl-1-(4-methylcyclohexanecarbonyl)hydrazinyl)-5-(3,3-dimethylbut-1-ynyl)thiophene-2-carboxylic acid]: the inhibition at 2 µM was 99.9%.

For the compound `CC(C)(C)C#Cc1cc(N(C(=O)[C@H]2CC[C@H](C)CC2)C2CCC(NC(=O)O[C@@H]3CCNC3=O)CC2)c(C(=O)O)s1` (stereo partly drawn) [Compound 50, 5-(3,3-dimethyl-but-1-ynyl)-3-{(4-trans-methyl-cyclohexanecarbonyl)-[4-(2-oxo-pyrrolidin-3-(R)-yloxycarbonylamino)-cyclohexyl]-amino}-thiophene-2-carboxylic acid], the inhibition at 2 µM is 99.9%.

For `CC1CCC(C(=O)N(c2cc(C#CC(C)(C)C)sc2C(=O)O)C2CCC(NN(C)c3ccc(O)nn3)CC2)CC1` (stereo not drawn) [Compound 82, 5-(3,3-Dimethyl-but-1-ynyl)-3-[{4-[N′-(6-hydroxy-pyridazin-3-yl)-N′-methyl-hydrazino]-cyclohexyl}-(4-methyl-cyclohexanecarbonyl)-amino]-thiophene-2-carboxylic acid], the inhibition at 2 µM stood at 100%.

`CC(C)(C)C#Cc1cc(N(C(=O)[C@H]2CC[C@H](C)CC2)C2CCC(NC(=O)OC3CCOCC3)CC2)c(C(=O)O)s1` (stereo partly drawn) [Compound 32, 5-(3,3-dimethyl-but-1-ynyl)-3-{(4-trans-methyl-cyclohexanecarbonyl)-[4-(tetrahydro-pyran-4-yloxycarbonylamino)-cyclohexyl]-amino}-thiophene-2-carboxylic acid]: the inhibition at 2 µM was 100%.

For the compound `CC1CCC(C(=O)N(c2cc(C#CC(C)(C)C)sc2C(=O)O)C2CCC(NN(C)c3nccs3)CC2)CC1` (stereo not drawn) [Compound 81, 5-(3,3-Dimethyl-but-1-ynyl)-3-{(4-methyl-cyclohexanecarbonyl)-[4-(N′-methyl-N′-thiazol-2-yl-hydrazino)-cyclohexyl]-amino}-thiophene-2-carboxylic acid], the inhibition at 2 µM was determined as 100%.

Regarding `CC1CCC(C(=O)N(c2cc(C#CC(C)(C)C)sc2C(=O)O)C2CCC(NC(=O)OC3CN(C(=O)OC(C)(C)C)C3)CC2)CC1` (stereo not drawn) [Compound 186, 3-{4-[[2-carboxy-5-(3,3-dimethyl-but-1-ynyl)-thiophen-3-yl]-(4-methyl-cyclohexanecarbonyl)-amino]-cyclohexylcarbamoyloxy}-azetidine-1-carboxylic acid tert-butyl ester], the inhibition at 2 µM was 98.9%.

With `CC(C)(C)C#Cc1cc(N(C(=O)[C@H]2CC[C@H](C)CC2)[C@H]2CCN(C(=O)OC3CCOCC3)C2)c(C(=O)O)s1` [Compound 41, 3-(S)-[[2-carboxy-5-(3,3-dimethyl-but-1-ynyl)-thiophen-3-yl]-(4-trans-methyl-cyclohexanecarbonyl)-amino]-pyrrolidine-1-carboxylic acid tetrahydro-pyran-4-yl ester], the inhibition at 2 µM amounted to 99.9%.

Take `CC(C)(C)C#Cc1cc(N(C(=O)[C@H]2CC[C@H](C)CC2)C2CCN(C(=O)OC3(C)CCNC3)CC2)c(C(=O)O)s1` (stereo partly drawn) [Compound 72, 4-[[2-Carboxy-5-(3,3-dimethyl-but-1-ynyl)-thiophen-3-yl]-(trans-4-methyl-cyclohexanecarbonyl)-amino]-piperidine-1-carboxylic acid 3-methyl-pyrrolidin-3-yl ester]: the inhibition at 2 µM was determined as 99.7%.

On to `CC(C)(C)C#Cc1cc(N(C(=O)[C@H]2CC[C@H](C)CC2)C2CCC(NC(=O)O[C@@H]3CCOC3)CC2)c(C(=O)O)s1` (stereo partly drawn) [Compound 48, 5-(3,3-dimethyl-but-1-ynyl)-3-{(4-trans-methyl-cyclohexanecarbonyl)-[4-(tetrahydro-furan-3-(R)-yloxycarbonylamino)-cyclohexyl]-amino}-thiophene-2-carboxylic acid], for which the inhibition at 2 µM is 100%.

On to `CC(C)(C)C#Cc1cc(N(C(=O)[C@H]2CC[C@H](C)CC2)[C@H]2CCN(C(=O)OC3(C)CCN(C(=O)OC(C)(C)C)C3)C2)c(C(=O)O)s1` (stereo in doubt) [Compound 67, 3-(S)-{3-[[2-Carboxy-5-(3,3-dimethyl-but-1-ynyl)-thiophene-3-yl](trans-4-methyl-cyclohexanecarbonyl)-amino]-pyrrolidine-1-carbonyloxy}-3-methyl-pyrrolidine-1-carboxylic acid tert-butyl ester], for which the inhibition at 2 µM came to 99%.

As to `CC(C)(C)C#Cc1cc(N(C(=O)[C@H]2CC[C@H](C)CC2)C2CCN(C(=O)O[C@@H]3CCCNC3)CC2)c(C(=O)O)s1` [Compound 52, 4-[[2-carboxy-5-(3,3-dimethyl-but-1-ynyl)-thiophen-3-yl]-(4-trans-methyl-cyclohexanecarbonyl)-amino]-piperidine-1-carboxylic acid piperidin-3-(R)-yl ester], the inhibition at 2 µM was determined as 93.5%.

As to `CC1CCC(C(=O)N(c2cc(C#CC(C)(C)C)sc2C(=O)O)N(C)C2CCN(C)CC2)CC1` (stereo not drawn) [Compound 129, 5-(3,3-dimethyl-but-1-ynyl)-3-[N′-methyl-N-(4-methyl-cyclohexanecarbonyl)-N′-(1-methyl-piperidin-4-yl)-hydrazino]-thiophene-2-carboxylic acid], the inhibition at 2 µM was 100%.

Take `CC(C)(C)C#Cc1cc(N(C(=O)[C@H]2CC[C@H](C)CC2)C2CCC(=NOCC#N)CC2)c(C(=O)O)s1` (stereo partly drawn) [Compound 116, 3-(N-(4-(Cyanomethoxyimino)cyclohexyl)-4-methylcyclohexanecarboxamido)-5-(3,3-dimethylbut-1-ynyl)thiophene-2-carboxylic acid]: the inhibition at 2 µM was 99.9%.

As to `CC(C)(C)C#Cc1cc(N(C(=O)[C@H]2CC[C@H](C)CC2)C2CCN(C(=O)O[C@@H]3CCCN(C(=O)OC(C)(C)C)C3)CC2)c(C(=O)O)s1` [Compound 51, Boc protected 4-[[2-carboxy-5-(3,3-dimethyl-but-1-ynyl)-thiophen-3-yl]-(4-trans-methyl-cyclohexanecarbonyl)-amino]-piperidine-1-carboxylic acid piperidin-3-(R)-yl ester], the inhibition at 2 µM came to 85.5%.

Consider `CC1CCC(C(=O)N(c2cc(C#CC(C)(C)C)sc2C(=O)O)N(C)CC2CCOCC2)CC1` (stereo not drawn) [Compound 131, 5-(3,3-dimethyl-but-1-ynyl)-3-[N′-methyl-N-(4-methyl-cyclohexanecarbonyl)-N′-(tetrahydro-pyran-4-ylmethyl)-hydrazino]-thiophene-2-carboxylic acid], for which the inhibition at 2 µM amounted to 99.9%.

Source of the values: patent US8884030B2, “Inhibitors of Flaviviridae viruses” (priority 2010, dated 2014).
